Assay results reported in patent US5736394A, “Cellular uptake of modified peptides” (Boston Biomedical Research Institute, priority 1996, dated 1998).
Where no end group is shown, it is not given here. The star is where a group is joined. Benzoyl(4-benzoyl) = O=C(c1ccccc1)c1ccc(C(=O)*)cc1

Key:
HL60 cells [1] = assay: HL60 cell proliferation ([3H]TdR incorporation into DNA) after 18 h incubation, plus or minus irradiation; format: cell-based, human
Method: A set of experiments were designed to assess the effects of Bz-peptides on ras-mediated signaling of cell proliferation, under conditions where incubations of cells, post peptide addition, were shorter (18 h) than that found optimal for their population doubling (~24 h). Experiments were intended to reveal early differences in the relative stability of the Bz-peptides, as judged by their effects on inhibition of cell proliferation, plus or minus irradiation.
HL60 cells were exposed to Bz-ACVIM SEQ ID NO: 4 (FPTase-specific), Bz-ACVIL SEQ ID NO: 5 (GGPTase-I-specific), the benzophenone photophore (BBA), mevinolin (proliferation inhibition control), or the DMSO vehicle alone, plus or minus irradiation. After incubation for 18 h at 37° C., irradiated and non-irradiated cultures were assayed for [^3 H]TdR incorporation into DNA (a measure of proliferation).

HL-60 cells = assay: Cellular uptake of [3H]Bz-peptides / [3H]BBA by HL60 cells (silicone oil centrifugation, cell pellets counted)
Method: Initial experiments were designed to determine whether the Bz-modified peptide could cross cellular membranes. The methods employed for these studies are given briefly. First, 2×10^6 HL-60 cells/mL were incubated in serum free medium at 37° C. together with either [^3 H]-benzoylbenzoic acid ([^3 H]BBA) or the [^3 H]Bz-peptideover a 45 min time course. Aliquots (0.5 mL) of the cell suspension were removed at the times shown and separated from the aqueous medium by centrifugation through a silicone oil barrier. The cell pellets in the oil layer were counted.
The volume of an average HL60 cell can be estimated as 4.2×10^-6 μL. Thus, the pellet volume occupied by a […] suspension of 10^6 cells is […].

HL60 cells [2] = assay: Inhibition of HL60 cell proliferation ([3H]TdR incorporation at 24 h) after photolysis of intracellular Bz-peptide at 365 nm; format: cell-based, human; conditions: for cytostatic response / inhibition of DNA synthesis: irradiation immediately after plating, FIG. 2A
Text: Experiments were designed to determine whether, after admission of the target-specific Bz-peptide molecules into proliferating cells, their photolysis in situ would induce a cytostatic response. Such a response would implicate the irreversible inhibition of ras-prenylating enzymes. […] It is important to note that, regardless of treatment, Trypan blue-assessed viability remained above 90% under the conditions employed for all experiments shown in FIG. 2A,B.
Two fundamental variations were performed. For FIG. 2A, cells were incubated in serum-free medium in the presence of a Bz-peptide, mevinolin, or, as control, with the DMSO delivery vehicle alone, for 15 min at room temp., after which fetal bovine serum was added to 10% (v/v) followed by plating in triplicate at 0.5 mL/well. These plates were immediately irradiated at 365 nm for 15 min to excite the intracellular Bz photophore, then placed in the incubator at 37° C. for 24 h. For FIG. 2B, the same procedure was followed except that, after serum replenishment and plating, cells were first incubated at 37° C. for 1 h, then removed from the incubator, irradiated for 15 min, and returned to incubation for 24 h. The 1 h incubation prior to irradiation was performed to assess, indirectly, the potential for intracellular destruction (or other means of depletion) of the Bz-peptides. At 24 h after serum replenishment, all cells were pulse-labeled with [^3 H]TdR to record the effect of intracellular Bz-peptide photolysis (as well as of mevinolin treatment, the effects of which have been well documented) on DNA synthesis and, thereby, on cell proliferation.

[3] = 10 μM, 1 h delay at 37° C. before photolysis, 24 h, FIG. 2B

O=C(O)c1ccc(C(=O)c2ccccc2)cc1 [BBA, 4-benzoylbenzoic acid]
effect on the cell's capacity for proliferation (HL60 cells [1]; whether cells were irradiated or not, 6th bar both panels): no effect

Bz-ACVIL: Bz-derivatized pentapeptide ACVIL; GGPTase-I-specific photoaffinity inhibitor ({Benzoyl(4-benzoyl)}-ACVIL)
influx and equilibration into cells (HL-60 cells): behaved similarly | inhibitory effect (HL60 cells [2]; [3]): ineffective | cytostatic response (HL60 cells [2]; 10 μM, 24 h): did not do so | loss of the inhibitory capacity manifest in FIG. 2A (HL60 cells [2]; 100 μM, 1 h delay before photolysis, FIG. 2B relative to FIG. 2A): about 60% | cytostatic response (HL60 cells [2]; 100 μM, 24 h): clear cytostatic response

mevinolin [reference compound]
relative extent of inhibition of cell proliferation (HL60 cells [1]; whether or not cells were irradiated, 2nd bar both panels): ~ 50% | growth inhibition (HL60 cells [2]; 10 μM, FIGS. 2A & 2B, whether irradiation was delayed for 1 h or not): apparent

Bz-ACVIM: Bz-derivatized pentapeptide; benzophenone moiety amide-coupled to the N-terminus of ACVIM; FPTase-specific photoaffinity inhibitor ({Benzoyl(4-benzoyl)}-ACVIM)
influx and equilibration into cells (HL-60 cells): extremely rapid | time to reach maximum levels of influx and equilibration (HL-60 cells): ≤ 15 min | inhibitory effect (HL60 cells [2]; [3]): much lower inhibitory effect | inhibition of DNA synthesis (HL60 cells [2]; 10 μM, 24 h): 75-80% | cytostatic effect (HL60 cells [2]; 100 μM, 1 h delay at 37° C. before photolysis, 24 h, FIG. 2B): remained at least as powerful as in FIG. 2A | inhibition of DNA synthesis (HL60 cells [2]; 100 μM, 24 h): 75-80%

APRTPGGRR
intracellular accumulation (HL-60 cells; 48 μM, HL60 cells, lowest trace in FIG. 1B): no evidence for intracellular accumulation
